{
  "source": "patent EP4813989A1",
  "about": "“CRYSTAL, PHARMACEUTICAL COMPOSITION, PREPARATION METHOD THEREFOR, AND USE THEREOF” (TYK Medicines, Inc., priority 2023, dated 2025)",
  "type_in_all_cases": "physicochemical",
  "key": {"[1]": {"experiment": "Stability study of tablets (40°C/75%RH): related substances", "conditions": "condition N/A", "experimental": "The inventors produced tablet 1 (40 mg) and the tablet 2 (10 mg) according to the formulations in Example 1 and Example 2. The above samples were stored under conditions of 40°C/75%RH (open), 40°C/75%RH (sealed), and 40°C/75%RH (sealed+1 g desiccant) to investigate dissolutions and related substances."}, "[2]": {"experiment": "pH-dependent solubility study", "conditions": "increasing with rising pH", "excerpt": "Following oral administration, the drug can be absorbed at multiple different sites along the gastrointestinal tract (including via the stomach, duodenum, jejunum, ileum, and colon). There is a significant pH change between the stomach (pH 1-3.5) and the small intestine (pH 4-8), resulting in different pH conditions at each absorption site. […] In dissolution studies, it was observed that the sink condition can be satisfied in pH 6.8 medium supplemented with SDS."}, "[3]": {"experiment": "Solid form stability on standing (XRD/PLM)", "excerpt": "The resulting solid sample was subjected to a corresponding characterization test. An XRD pattern of the sample can be seen in FIG. 8.\nA crystal form E sample was obtained by suspending and stirring the amorphous sample prepared in Example 2 in a 1,4-dioxane/n-heptane solvent system at room temperature. XRD results of the sample can be seen in FIG. 9. […] On this basis, it was inferred that the crystal form E was a metastable crystal form.\nXRD results of the sample can be seen in FIG. 17.\nXRD results of the sample can be seen in FIG. 20. TGA/DSC results can be seen in FIG. 21. […] An ^1H NMR spectrum of the crystal form D was obtained by a test in DMSO-d6, and no obvious solvent residue was observed. […] Based on nuclear magnetic resonance data and heating test results of the sample, it was inferred that the crystal form D was a hydrate crystal form."}, "[4]": {"conditions": "listed as Active pharmaceutical ingredient^*2"}},
  "data": [
    {"smiles": "C[C@@H](Nc1ccn2ncc(C3=NOC(C)(C)N3)c2n1)c1cc(F)cc(F)c1F.O", "note": "[Active pharmaceutical ingredient]", "values": [
      {"measurement": "Individual impurity (RRT) 0.56", "setting": "[1]", "value": "<0.05", "unit": "%"},
      {"measurement": "Individual impurity (RRT) 0.66/ 0.67/ 0.69/ 0.70", "setting": "[1]", "value": 0.22, "unit": "%"},
      {"measurement": "Individual impurity (RRT) 0.71/ 0.72/ 0.73/ 0.74", "setting": "[1]", "value": 0.18, "unit": "%"},
      {"measurement": "Individual impurity (RRT) 0.91", "setting": "[1]", "value": "<0.05", "unit": "%"},
      {"measurement": "Individual impurity (RRT) 1.02", "setting": "[1]", "value": 0.27, "unit": "%"},
      {"measurement": "Individual impurity (RRT) 1.05/ 1.06", "setting": "[1]", "value": 0.07, "unit": "%"},
      {"measurement": "Individual impurity (RRT) 1.07/ 1.08", "setting": "[1]", "value": 0.18, "unit": "%"},
      {"measurement": "Individual impurity (RRT) 1.14", "setting": "[1]", "value": "<0.05", "unit": "%"},
      {"measurement": "Total impurities", "setting": "[1]", "value": 0.92, "unit": "%"},
      {"measurement": "Individual impurity (RRT) 0.71/ 0.72/ 0.73/ 0.74", "setting": "[1]; [4]", "value": 0.19, "unit": "%"},
      {"measurement": "Individual impurity (RRT) 1.02", "setting": "[1]; [4]", "value": 0.32, "unit": "%"},
      {"measurement": "Individual impurity (RRT) 1.07/ 1.08", "setting": "[1]; [4]", "value": 0.19, "unit": "%"},
      {"measurement": "Total impurities", "setting": "[1]; [4]", "value": 0.99, "unit": "%"}
    ]},
    {"smiles": "C[C@@H](Nc1ccn2ncc(C3=NOC(C)(C)N3)c2n1)c1cc(F)cc(F)c1F", "note": "[TY-2136b, (R)-3-(5,5-dimethyl-4,5-dihydro-1,2,4-oxadiazol-3-yl)-N-(1-(2,3,5-trifluorophenyl)ethyl)pyrazolo[1 ,5-a]pyrimidin-5-amine]", "values": [
      {"measurement": "solubility", "setting": "[2]", "value": "generally low"}
    ]},
    {"smiles": "C[C@@H](Nc1ccn2ncc(C3=NOC(C)(C)N3)c2n1)c1cc(F)cc(F)c1F", "note": "[crystal form B]", "values": [
      {"measurement": "Solid form stability", "setting": "[3]; room humidity (17.3%RH), same day", "value": "rapidly transformed into a crystal form C"}
    ]},
    {"smiles": "C[C@@H](Nc1ccn2ncc(C3=NOC(C)(C)N3)c2n1)c1cc(F)cc(F)c1F", "note": "[crystal form D]", "values": [
      {"measurement": "Solid form stability", "setting": "[3]; heating to 120°C and cooling to room temperature", "value": "transformed into an amorphous form"},
      {"measurement": "Crystallinity", "setting": "[3]; standing sealed at room temperature for 2 days", "value": "significantly reduced"}
    ]}
  ]
}
